# Patent US9504701B2, “Methods for treating viral infections using hydrogen sulfide donors” (THE BOARD OF REGENTS OF THE UNIVERSITY OF TEXAS SYSTEM, priority 2014, dated 2016)
# What was measured:
# [1] = tested on: A549 cells infected with RSV; format: cell-based, human
# RSV = RSV replication in A549 cells, viral titers by plaque assay; format: cell-based, RSV Long strain; settings: PAG 20 or 40 mM, 24 h p.i.
compound,measurement,setting,value
"C#CCC(N)C(=O)O (racemic) [PAG, DL-propargylglycin]",levels of production of several cytokines and chemokines in response to RSV infection,[1],significantly increased
same,increase in viral infectious-particle formation (plaque assay),RSV,3- to 4 fold
same,basal cellular mediator secretion,uninfected cells,no effect
same,uninfected-cell viability (trypan blue exclusion),uninfected cells,no effect
